Reference: publication PMC12686490 (Nature Communications, 2025)
Numbered stars: 1 amine (or outer) side, 2 acyl side, 3 side chain; on linkers, the order of the positions; unused ones are H or OH. Bridge positions count the residues as written; N and C are the ends. Square brackets hold non-standard residues; d marks the D form. Peptide text beside a SMILES is read from it. X1 = O=C(C1(O)C[C@H](O)[C@@H](N[*:1])[C@H]([C@H](O)[C@H](O)CO)O1)[*:2]; X2 = CC(=O)NC(C(=O)OC(C(C)C)C(N[*:1])C(=O)[*:2])C(O)C(C)C; NMeW = CN[C@@H](Cc1c[nH]c2ccccc12)C(=O)O; Phe(3-Br) = N[C@@H](Cc1cccc(Br)c1)C(=O)O; PhLac = O=C(O)[CH](O)Cc1ccccc1; NMeT = CN[CH](C(=O)O)[CH](C)O; Nle = CCCC[C@H](N)C(=O)O; NMeA = CN[CH](C)C(=O)O; NMeDha = C=C(NC)C(=O)O

How the values were obtained:
[1] = system: CCKBR-LTP in the auditory cortex; experiment: MEA recording, TBS-induced CCKBR-LTP in auditory cortex slices of C57 mice; set-up: species or system mouse; settings: for Effect on TBS-induced CCKBR-LTP: one-hour preincubation: 100 nM YF476, 10 μM U-73122, 50 μM 2-APB, 20 μM YM254890, 100 μM barbadin, 10 μM H-89, 300 ng PTX injected into AC 24-48 h before
[2] = system: CCKBR-LTP in the auditory cortex; experiment: MEA recording, drug plus LFS-induced LTP in auditory cortex slices; set-up: species or system mouse; settings: 200 nM, 10 min, AC slices of C57 mice
GPR173 / β-arrestin1 = GPR173 / β-arrestin1 (Homo sapiens, UniProt Q9NS66); experiment: BRET-based β-arrestin1 assay, 293T-GPR173 cells; type: cell-based; settings: up to 10 μM
GPR173 / β-arrestin2 = GPR173 / β-arrestin2 (Homo sapiens, UniProt Q9NS66); experiment: BRET-based β-arrestin2 assay, 293T-GPR173 cells; type: cell-based; settings: up to 10 μM
CCKBR [3] = biological target: T1, CCKBR (Homo sapiens, UniProt P32239); experiment: Calcium mobilization assay; type: cell-based; settings: screening
T1 sequence (P32239 1-447): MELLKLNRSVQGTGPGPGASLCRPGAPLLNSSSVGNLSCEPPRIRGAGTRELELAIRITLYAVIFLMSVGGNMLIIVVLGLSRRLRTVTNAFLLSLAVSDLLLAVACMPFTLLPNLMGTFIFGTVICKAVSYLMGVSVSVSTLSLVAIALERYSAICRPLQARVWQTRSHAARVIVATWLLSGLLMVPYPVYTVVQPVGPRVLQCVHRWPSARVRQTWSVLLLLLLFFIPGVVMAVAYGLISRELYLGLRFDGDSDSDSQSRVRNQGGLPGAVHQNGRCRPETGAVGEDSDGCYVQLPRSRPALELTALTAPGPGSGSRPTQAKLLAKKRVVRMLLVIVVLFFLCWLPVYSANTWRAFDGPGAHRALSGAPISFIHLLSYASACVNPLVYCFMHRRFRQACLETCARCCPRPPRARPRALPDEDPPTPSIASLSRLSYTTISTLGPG

CCKBR [4] = biological target: T1, CCKBR; experiment: PRESTO-Tango assay; type: cell-based; settings: screening

Chain of GPR173 / β-arrestin2 (Q9NS66 whole entry): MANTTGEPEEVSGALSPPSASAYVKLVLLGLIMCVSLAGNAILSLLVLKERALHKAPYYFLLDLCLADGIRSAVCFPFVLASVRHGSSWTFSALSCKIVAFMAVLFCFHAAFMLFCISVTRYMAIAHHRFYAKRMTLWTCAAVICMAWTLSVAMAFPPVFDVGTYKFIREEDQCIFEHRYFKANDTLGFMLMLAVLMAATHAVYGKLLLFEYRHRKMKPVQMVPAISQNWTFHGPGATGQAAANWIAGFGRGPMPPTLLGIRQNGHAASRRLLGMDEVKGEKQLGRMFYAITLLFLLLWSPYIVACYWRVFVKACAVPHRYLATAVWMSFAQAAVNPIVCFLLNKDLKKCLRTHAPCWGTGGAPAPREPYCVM
Chain of GPR173 / β-arrestin1 (Q9NS66 whole entry): as above

| Compound | Effect on TBS-induced CCKBR-LTP [1] | also measured |
| --- | --- | --- |
| NCCOB(c1ccccc1)c1ccccc1 [2-APB] | significantly and almost completely inhibited | – |
| Nn1cnc2scc(-c3ccc(Cc4ccccc4)cc3)c2c1=O [barbadin] | could not inhibit | Effect on the inhibition of TBS-induced LTP by MF-8 ([1]; 2-h preincubation of barbadin + 200 nM MF-8): could indeed eliminate the inhibitory effect of MF-8 |
| CNc1cccc(NC(=O)N[C@@H]2N=C(c3ccccn3)c3ccccc3N(CC(=O)C(C)(C)C)C2=O)c1 [YF476] | confirmed that the LTP was CCKBR-dependent | – |
| CSCC[C@H](NC(=O)[C@H](Cc1ccc(OS(=O)(=O)O)cc1)NC(=O)[C@@H](N)CC(=O)O)C(=O)NCC(=O)N[C@@H](Cc1c[nH]c2ccccc12)C(=O)N[C@@H](CCSC)C(=O)N[C@@H](CC(=O)O)C(=O)N[C@@H](Cc1ccccc1)C(N)=O [CCK8s] | – | LTP induction by drug with LFS (fEPSP amplitude) [2]: induced LTP; Activation of β-arrestin1 downstream of GPR173 (GPR173 / β-arrestin1): could activate; Activation of β-arrestin2 downstream of GPR173 (GPR173 / β-arrestin2): could activate |
| COc1ccc2c(c1)CC[C@@H]1[C@@H]2CC[C@]2(C)[C@@H](NCCCCCCN3C(=O)C=CC3=O)CC[C@@H]12 [U-73122] | significantly and almost completely inhibited | – |
| C=C1C(=O)NC(C)C(=O)N(C)C(C)C(=O)NC(C(OC(=O)C(NC(C)=O)C(O)C(C)C)C(C)C)C(=O)N(C)C(C(C)OC)C(=O)OC(C)C(NC(C)=O)C(=O)OC(Cc2ccccc2)C(=O)N1C (stereo not drawn) [YM254890] (Ac-T[PhLac][NMeDha]A[NMeA][X2][NMeT](Me); ester 1-C; configuration not given here) | significantly and almost completely inhibited | – |
| O=S(=O)(NCCNC/C=C/c1ccc(Br)cc1)c1cccc2cnccc12 [H-89] | partially inhibited | – |
| CCCC[C@H](NC(=O)[C@H](Cc1c[nH]c2ccccc12)N(C)C(=O)C1(O)C[C@H](O)[C@@H](NC(C)=O)[C@H]([C@H](O)[C@H](O)CO)O1)C(=O)N[C@@H](CC(=O)O)C(=O)N[C@@H](Cc1cccc(Br)c1)C(N)=O (stereo partly drawn) [MF-7] (Ac-[X1][NMeW][Nle]D[Phe(3-Br)]-NH2) | – | Activation of Gαq/11-Ca2+ signaling (CCKBR [3]): performed poorly; Induction of β-arrestin2 signaling (CCKBR [4]): highly potent |
